The values that follow come from ChEMBL document CHEMBL3638751, “5-alkynyl-pyridines” (2013).

For the assay, the target named is Phosphatidylinositol 4,5-bisphosphate 3-kinase catalytic subunit alpha isoform (Homo sapiens, UniProt P42336). Nature of the assay: Filter-Binding-Assay: This PI3Kalpha assay provides an IC50 value indicative of the activity of the compounds to inhibit PI3 kinase alpha activity. Inhibition of PI3 kinase would be expected to be indicative of activity in treating conditions of excessive or anomalous cell proliferation, such as cancers. See also J. A. Engelman, Nature Reviews Cancer, 2009, 9, 550-562; A. Carnero, Expert Opin. Investig. Drugs, 2009, 18, 1265-1277 and P. Liu et al., Nature Reviews Drug Discovery, 2009, 8, 627-64.
Phosphatidylinositol 4,5-bisphosphate 3-kinase catalytic subunit alpha isoform, sequence (P42336 whole entry, canonical isoform): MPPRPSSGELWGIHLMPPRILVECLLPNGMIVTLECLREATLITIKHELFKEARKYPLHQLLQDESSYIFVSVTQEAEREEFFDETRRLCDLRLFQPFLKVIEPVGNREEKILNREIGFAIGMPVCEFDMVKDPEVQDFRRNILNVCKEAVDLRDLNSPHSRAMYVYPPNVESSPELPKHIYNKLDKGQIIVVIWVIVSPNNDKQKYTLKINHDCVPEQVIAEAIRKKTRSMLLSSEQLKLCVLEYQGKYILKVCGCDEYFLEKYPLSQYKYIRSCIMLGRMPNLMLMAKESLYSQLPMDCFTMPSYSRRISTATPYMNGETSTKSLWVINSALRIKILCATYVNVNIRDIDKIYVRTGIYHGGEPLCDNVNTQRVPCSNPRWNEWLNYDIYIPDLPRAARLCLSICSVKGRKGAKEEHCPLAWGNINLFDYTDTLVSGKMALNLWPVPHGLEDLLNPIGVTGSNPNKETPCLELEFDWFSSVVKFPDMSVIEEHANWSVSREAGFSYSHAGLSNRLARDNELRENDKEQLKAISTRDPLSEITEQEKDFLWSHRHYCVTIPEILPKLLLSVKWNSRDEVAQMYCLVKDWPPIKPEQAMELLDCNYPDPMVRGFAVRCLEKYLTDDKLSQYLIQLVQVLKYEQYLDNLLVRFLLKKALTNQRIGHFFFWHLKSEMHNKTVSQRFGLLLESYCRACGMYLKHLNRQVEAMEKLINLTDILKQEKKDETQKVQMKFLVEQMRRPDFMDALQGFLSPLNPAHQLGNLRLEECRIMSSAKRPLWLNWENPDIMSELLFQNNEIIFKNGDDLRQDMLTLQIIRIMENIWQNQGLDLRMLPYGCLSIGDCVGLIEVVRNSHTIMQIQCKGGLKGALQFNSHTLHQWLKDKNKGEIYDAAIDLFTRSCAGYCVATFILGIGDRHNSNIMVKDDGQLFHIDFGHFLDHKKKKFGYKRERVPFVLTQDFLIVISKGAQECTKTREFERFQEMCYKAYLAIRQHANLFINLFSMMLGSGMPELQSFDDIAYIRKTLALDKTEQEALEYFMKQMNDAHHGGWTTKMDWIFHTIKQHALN

Molecule `CCc1ncnc(N2CCC(O)CC2)c1C#Cc1cnc(C)c(NS(C)(=O)=O)c1` yielded an IC50 of 860 pM. The same measure for `Cc1ncc(C#Cc2c(C)ncnc2N2CCOCC2)cc1NS(=O)(=O)c1cnn(C)c1`: 560 pM.

Broadly, the IC50 is the point on the concentration scale where inhibition reaches its midpoint.
